Laboratory results from ChEMBL document CHEMBL4808256, “Benzothiophene derivatives as selective estrogen receptor covalent antagonists: Design, synthesis and anti-ERα activities” (Bioorg Med Chem, 2021).
One block for each compound: values may come before it. Calls of active or inactive are those of the source. No cut-off for these calls is given here.

Tests used:
MCF7 [1] = assay: Antiproliferative activity against ER-positive human MCF7 cells assessed as inhibition of cell growth incubated for 48 hrs by CCK8 assay; format: functional, cell-based; settings: MCF7, 48 h
Ishikawa [2] = assay: Antiproliferative activity against ER-positive human Ishikawa cells assessed as inhibition of cell growth incubated for 48 hrs by CCK8 assay; format: functional, cell-based
MCF7 [3] = assay: Induction of apoptosis in human MCF7 cells assessed as late apoptotic cells at 1 uM by AnnexinV-FITC/propidium iodide staining based flow cytometry (reference value: 0.7%); format: functional
MCF7 [4] = assay: Induction of cell cycle arrest in human MCF7 cells assessed as accumulation at G2/M phase at 10 uM by propidium iodide staining based flow cytometric analysis (reference value: 12.24%); format: functional
MCF7 [5] = assay: Potency index, ratio of raloxifene IC50 to test compound IC50 for antiproliferative activity against ER-positive human MCF7 cells; format: functional
MCF7 [6] = assay: Downregulation of ERalpha protein expression in human MCF7 cells at 5 uM incubated for 24 hrs by DAPI staining based immunofluorescence microscopy; format: functional, cell-based
MCF7 [7] = assay: Induction of apoptosis in human MCF7 cells assessed as late apoptotic cells at 10 uM by AnnexinV-FITC/propidium iodide staining based flow cytometry (reference value: 0.7%); format: functional
MCF7 [8] = assay: Induction of apoptosis in human MCF7 cells assessed as early apoptotic cells at 5 uM by AnnexinV-FITC/propidium iodide staining based flow cytometry (reference value: 0.8%); format: functional
MDA-MB-231 = assay: Antiproliferative activity against ER-negative human MDA-MB-231 cells assessed as inhibition of cell growth incubated for 48 hrs by CCK8 assay; format: functional, cell-based; settings: MDA-MB-231, 48 h
MCF7 [9] = assay: Induction of cell cycle arrest in human MCF7 cells assessed as accumulation at S phase at 1 uM by propidium iodide staining based flow cytometric analysis (reference value: 63.32%); format: functional
Ishikawa [10] = assay: Induction of cell proliferation in human ishikawa cells at 156 to 5000 nM measured after 2 days; format: cell-based; settings: 48 h, 5 µM, dose 156-5000 nM, time 2 day
MCF7 [11] = assay: Induction of apoptosis in human MCF7 cells assessed as viable cells at 10 uM by AnnexinV-FITC/propidium iodide staining based flow cytometry (reference value: 96.1%); format: functional; settings: read-out: Activity
MCF7 [12] = assay: Induction of apoptosis in human MCF7 cells assessed as late apoptotic cells at 5 uM by AnnexinV-FITC/propidium iodide staining based flow cytometry (reference value: 0.7%); format: functional
MCF7 [13] = assay: Induction of apoptosis in human MCF7 cells assessed as necrotic cells at 5 uM by AnnexinV-FITC/propidium iodide staining based flow cytometry (reference value: 0.4%); format: functional
[14] = target: T1, Estrogen receptor (Homo sapiens) (UniProt P03372); assay: Covalent antagonist activity at ERalpha in human MCF7 cells assessed as reduction in E2-stimulated TFF1 gene expression at 1.25 to 10 uM incubated for 24 hrs by RT-PCR analysis; format: cell-based; settings: filed as antagonist, dose 1.25-10 µM
T1 sequence (whole entry): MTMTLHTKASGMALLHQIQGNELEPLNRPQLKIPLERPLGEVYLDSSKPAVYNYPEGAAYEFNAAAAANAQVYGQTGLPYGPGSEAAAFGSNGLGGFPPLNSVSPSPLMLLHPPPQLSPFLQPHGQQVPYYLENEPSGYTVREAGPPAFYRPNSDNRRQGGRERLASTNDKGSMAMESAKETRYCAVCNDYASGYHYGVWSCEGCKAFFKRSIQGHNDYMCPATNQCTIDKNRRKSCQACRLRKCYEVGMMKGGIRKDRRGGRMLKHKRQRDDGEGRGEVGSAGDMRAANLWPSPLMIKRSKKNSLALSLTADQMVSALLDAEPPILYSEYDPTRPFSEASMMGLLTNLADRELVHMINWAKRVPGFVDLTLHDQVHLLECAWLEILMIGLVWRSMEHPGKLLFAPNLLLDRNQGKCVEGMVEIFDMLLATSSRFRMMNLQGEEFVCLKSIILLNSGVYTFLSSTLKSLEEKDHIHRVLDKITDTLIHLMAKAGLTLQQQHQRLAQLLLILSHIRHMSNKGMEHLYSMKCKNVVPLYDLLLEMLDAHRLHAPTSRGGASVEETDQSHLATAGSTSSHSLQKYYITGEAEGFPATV

MCF7 [15] = assay: Induction of apoptosis in human MCF7 cells assessed as early apoptotic cells at 10 uM by AnnexinV-FITC/propidium iodide staining based flow cytometry (reference value: 0.8%); format: functional
MCF7 [16] = assay: Induction of cell cycle arrest in human MCF7 cells assessed as accumulation at G0/G1 phase at 1 uM by propidium iodide staining based flow cytometric analysis (reference value: 24.44%); format: functional
MCF7 [17] = assay: Induction of cell cycle arrest in human MCF7 cells assessed as accumulation at S phase at 5 uM by propidium iodide staining based flow cytometric analysis (reference value: 63.32%); format: functional
MCF7 [18] = assay: Induction of cell cycle arrest in human MCF7 cells assessed as accumulation at G0/G1 phase at 10 uM by propidium iodide staining based flow cytometric analysis (reference value: 24.44%); format: functional
MCF7 [19] = assay: Induction of cell cycle arrest in human MCF7 cells assessed as accumulation at G2/M phase at 1 uM by propidium iodide staining based flow cytometric analysis (reference value: 12.24%); format: functional
[20] = target: T1, Estrogen receptor (Homo sapiens); assay: Covalent antagonist activity at ERalpha in human MCF7 cells assessed as reduction in E2-stimulated GREB1 gene expression at 1.25 to 10 uM incubated for 24 hrs by RT-PCR analysis; format: cell-based; settings: filed as antagonist, dose 1.25-10 µM
MCF7 [21] = assay: Induction of cell cycle arrest in human MCF7 cells assessed as accumulation at S phase at 10 uM by propidium iodide staining based flow cytometric analysis (reference value: 63.32%); format: functional
MCF7 [22] = assay: Induction of apoptosis in human MCF7 cells assessed as viable cells at 1 uM by AnnexinV-FITC/propidium iodide staining based flow cytometry (reference value: 96.1%); format: functional; settings: read-out: Activity
MCF7 [23] = assay: Induction of cell cycle arrest in human MCF7 cells assessed as accumulation at G0/G1 phase at 5 uM by propidium iodide staining based flow cytometric analysis (reference value: 24.44%); format: functional
MCF7 [24] = assay: Induction of apoptosis in human MCF7 cells assessed as necrotic cells at 1 uM by AnnexinV-FITC/propidium iodide staining based flow cytometry (reference value: 0.4%); format: functional
MCF7 [25] = assay: Induction of apoptosis in human MCF7 cells assessed as viable cells at 5 uM by AnnexinV-FITC/propidium iodide staining based flow cytometry (reference value: 96.1%); format: functional; settings: read-out: Activity
MCF7 [26] = assay: Induction of cell cycle arrest in human MCF7 cells assessed as accumulation at G2/M phase at 5 uM by propidium iodide staining based flow cytometric analysis (reference value: 12.24%); format: functional
MCF7 [27] = assay: Induction of apoptosis in human MCF7 cells assessed as necrotic cells at 10 uM by AnnexinV-FITC/propidium iodide staining based flow cytometry (reference value: 0.4%); format: functional
MCF7 [28] = assay: Induction of apoptosis in human MCF7 cells assessed as early apoptotic cells at 1 uM by AnnexinV-FITC/propidium iodide staining based flow cytometry (reference value: 0.8%); format: functional
[29] = target: T1, Estrogen receptor (Homo sapiens); assay: Antagonist activity at ERalpha receptor in human ishikawa cells assessed as suppression of E2-stimulated PGR expression at 1.25 to 10 uM by RT-PCR analysis; format: cell-based; settings: filed as antagonist, dose 1.25-10 µM

Compound: C/C=C/C(=O)NCCOc1ccc(C(=O)c2c(-c3ccc(O)cc3)sc3cc(O)ccc23)cc1
- IC50 (MCF7 [1]): > 50 µM
- IC50 (Ishikawa [2]): > 100 µM

Compound: CC/C(=C(\c1ccccc1)c1ccc(OCCN(C)C)cc1)c1ccccc1 [TAMOXIFEN]
- IC50 (Ishikawa [2]): 14.6 µM

Compound: O=C(c1ccc(OCCNC/C=C/C(=O)N2CCOCC2)cc1)c1c(-c2ccc(O)cc2)sc2cc(O)ccc12
- IC50 (MDA-MB-231): > 50 µM
- IC50 (MCF7 [1]): 8.41 µM
- IC50 (Ishikawa [2]): 24.9 µM

Compound: C=C(C)C(=O)N1CCN(c2ccc(C(=O)c3c(-c4ccc(O)cc4)sc4cc(O)ccc34)cc2)CC1
- IC50 (MCF7 [1]): > 50 µM
- IC50 (Ishikawa [2]): > 100 µM

Compound: C/C=C/C(=O)N1CC(Oc2ccc(C(=O)c3c(-c4ccc(O)cc4)sc4cc(O)ccc34)cc2)C1
- IC50 (MCF7 [1]): 23.7 µM
- IC50 (Ishikawa [2]): 22.2 µM

Compound: C=CC(=O)NCCOc1ccc(C(=O)c2c(-c3ccc(O)cc3)sc3cc(O)ccc23)cc1
- IC50 (MCF7 [1]): 37.1 µM
- IC50 (Ishikawa [2]): > 100 µM

Compound: C=CC(=O)N1CC(Oc2ccc(C(=O)c3c(-c4ccc(O)cc4)sc4cc(O)ccc34)cc2)C1
- IC50 (MCF7 [1]): 31.3 µM
- IC50 (Ishikawa [2]): 16.6 µM

Compound: CC/C(=C(\c1ccc(O)cc1)c1ccc(OCCN(C)C)cc1)c1ccccc1 [AFIMOXIFENE]
- Activity (Ishikawa [10]): Toxic

Compound: CN(C)C(=O)/C=C/CNCCOc1ccc(C(=O)c2c(-c3ccc(O)cc3)sc3cc(O)ccc23)cc1
- IC50 (MCF7 [1]): > 50 µM
- IC50 (Ishikawa [2]): 48.4 µM

Compound: C=CC(=O)N1CCN(c2ccc(C(=O)c3c(-c4ccc(O)cc4)sc4cc(O)ccc34)cc2)CC1
- IC50 (MCF7 [1]): > 50 µM
- IC50 (Ishikawa [2]): > 100 µM

Compound: O=C(c1ccc(OCCN2CCCCC2)cc1)c1c(-c2ccc(O)cc2)sc2cc(O)ccc12 [RALOXIFENE]
- IC50 (MCF7 [1]): 21.9 µM
- IC50 (Ishikawa [2]): 28.4 µM

Compound: CNC(=O)/C=C/CNCCOc1ccc(C(=O)c2c(-c3ccc(O)cc3)sc3cc(O)ccc23)cc1
- IC50 (MDA-MB-231): > 50 µM
- IC50 (MCF7 [1]): 13.1 µM
- IC50 (Ishikawa [2]): 50.9 µM

Compound: C=C(C)C(=O)NCCOc1ccc(C(=O)c2c(-c3ccc(O)cc3)sc3cc(O)ccc23)cc1
- IC50 (MCF7 [1]): 28.7 µM
- IC50 (Ishikawa [2]): 29.2 µM

Compound: COCCNC(=O)/C=C/CNCCOc1ccc(C(=O)c2c(-c3ccc(O)cc3)sc3cc(O)ccc23)cc1
- IC50 (MCF7 [1]): 42.8 µM
- IC50 (Ishikawa [2]): 55.3 µM

Compound: C=C(C)C(=O)N1CC(Oc2ccc(C(=O)c3c(-c4ccc(O)cc4)sc4cc(O)ccc34)cc2)C1
- IC50 (MCF7 [1]): 23.1 µM
- IC50 (Ishikawa [2]): 22.6 µM

Compound: O=C(c1ccc(OCCNC/C=C/C(=O)N2CCC2)cc1)c1c(-c2ccc(O)cc2)sc2cc(O)ccc12
- IC50 (MCF7 [1]): 24.2 µM
- IC50 (Ishikawa [2]): 29.6 µM

More lines, main results first:

- IC50 (MDA-MB-231): > 50 µM
- IC50 (MCF7 [1]): 1.31 µM
- inhibition [14]: Active
- inhibition [20]: Active
- inhibition [29]: Active
Compound: O=C(c1ccc(OC2CN(C/C=C/C(=O)N3CCCCC3)C2)cc1)c1c(-c2ccc(O)cc2)sc2cc(O)ccc12
- Activity (MCF7 [3]): 3.4%
- Activity (MCF7 [4]): 11.72%
- Ratio IC50 (MCF7 [5]): 20
- inhibition (MCF7 [6]): Active
- Activity (MCF7 [7]): 15.8%
- Activity (MCF7 [8]): 11.5%
- Activity (MCF7 [9]): 57.31%
- Activity (Ishikawa [10]): Non-Toxic
- viability at 10 µM (MCF7 [11]): 66.3%
- Activity (MCF7 [12]): 9.7%
- Activity (MCF7 [13]): 1.4%
- Activity (MCF7 [15]): 16.6%
- Activity (MCF7 [16]): 28.53%
- Activity (MCF7 [17]): 54.23%
- Activity (MCF7 [18]): 38.85%
- Activity (MCF7 [19]): 14.1%
- Activity (MCF7 [21]): 49.43%
- viability at 1 µM (MCF7 [22]): 87.1%
- Activity (MCF7 [23]): 32.84%
- Activity (MCF7 [24]): 1.2%
- IC50 (Ishikawa [2]): 10.3 µM
- viability at 5 µM (MCF7 [25]): 77.4%
- Activity (MCF7 [26]): 12.93%
- Activity (MCF7 [27]): 1.3%
- Activity (MCF7 [28]): 8.3%

- IC50 (MDA-MB-231): > 50 µM
- IC50 (MCF7 [1]): > 50 µM
Compound: O=C(c1ccc(OC2CN(CCCC(=O)N3CCCCC3)C2)cc1)c1c(-c2ccc(O)cc2)sc2cc(O)ccc12
- IC50 (Ishikawa [2]): > 50 µM

- IC50 (MCF7 [1]): 5.72 µM
Compound: O=C(c1ccc(OC2CN(C/C=C/C(=O)N3CCOCC3)C2)cc1)c1c(-c2ccc(O)cc2)sc2cc(O)ccc12
- Ratio IC50 (MCF7 [5]): 4
- IC50 (Ishikawa [2]): 18.4 µM

- IC50 (MCF7 [1]): 24.2 µM
Compound: O=C(c1ccc(OCCNC/C=C/C(=O)N2CCCC2)cc1)c1c(-c2ccc(O)cc2)sc2cc(O)ccc12
- IC50 (Ishikawa [2]): 46.1 µM

- IC50 (MCF7 [1]): 11.5 µM
Compound: O=C(c1ccc(OCCNC/C=C/C(=O)N2CCCCC2)cc1)c1c(-c2ccc(O)cc2)sc2cc(O)ccc12
- IC50 (Ishikawa [2]): 6.34 µM

- IC50 (MDA-MB-231): > 50 µM
- IC50 (MCF7 [1]): 11.3 µM
Compound: CNC(=O)/C=C/CN1CC(Oc2ccc(C(=O)c3c(-c4ccc(O)cc4)sc4cc(O)ccc34)cc2)C1
- IC50 (Ishikawa [2]): 45 µM

- IC50 (MCF7 [1]): 23.3 µM
Compound: O=C(c1ccc(OC2CN(C/C=C/C(=O)N3CCC3)C2)cc1)c1c(-c2ccc(O)cc2)sc2cc(O)ccc12
- IC50 (Ishikawa [2]): 25.8 µM

- IC50 (MCF7 [1]): 29.3 µM
Compound: CN(C)C(=O)/C=C/CN1CC(Oc2ccc(C(=O)c3c(-c4ccc(O)cc4)sc4cc(O)ccc34)cc2)C1
- IC50 (Ishikawa [2]): 29.6 µM
